Experimental data taken from ChEMBL document CHEMBL5321222, “N(14)-substituted evodiamine derivatives as dual topoisomerase 1/tubulin-Inhibiting anti-gastrointestinal tumor agents” (Eur J Med Chem, 2023).
Active and inactive are the calls of the source. No cut-off for these calls is given here.

Assays:
SW480 = experiment: Antiproliferative activity against human SW480 cells assessed as reduction in cell viability incubated for 72 hrs by MTT assay; format: functional, cell-based; conditions: SW480, 72 h
LoVo = experiment: Antiproliferative activity against human LoVo cells assessed as reduction in cell viability incubated for 72 hrs by MTT assay; format: functional, cell-based
RKO [1] = experiment: Antiproliferative activity against human RKO cells assessed as reduction in cell viability incubated for 72 hrs by MTT assay; format: functional, cell-based
HGC-27 = experiment: Antiproliferative activity against human HGC-27 cells assessed as reduction in cell viability incubated for 72 hrs by MTT assay; format: functional, cell-based; conditions: HGC-27, 72 h
SGC-7901 = experiment: Antiproliferative activity against human SGC-7901 cells assessed as reduction in cell viability incubated for 72 hrs by MTT assay; format: functional, cell-based; conditions: SGC-7901, 72 h
MGC-803 [2] = experiment: Antiproliferative activity against human MGC-803 cells assessed as reduction in cell viability incubated for 72 hrs by MTT assay; format: functional, cell-based; conditions: MGC-803, 72 h
GES1 = experiment: Antiproliferative activity against human GES1 cells assessed as reduction in cell viability incubated for 72 hrs by MTT assay; format: functional, cell-based; conditions: GES1, 72 h
[3] = target: T1, DNA topoisomerase 1 (Homo sapiens) (UniProt P11387); experiment: Inhibition of topoisomerase 1 (unknown origin) at 200 uM using PBR322 DNA as substrate incubated for 30 mins by agarose gel electrophoresis
T1 sequence (whole entry): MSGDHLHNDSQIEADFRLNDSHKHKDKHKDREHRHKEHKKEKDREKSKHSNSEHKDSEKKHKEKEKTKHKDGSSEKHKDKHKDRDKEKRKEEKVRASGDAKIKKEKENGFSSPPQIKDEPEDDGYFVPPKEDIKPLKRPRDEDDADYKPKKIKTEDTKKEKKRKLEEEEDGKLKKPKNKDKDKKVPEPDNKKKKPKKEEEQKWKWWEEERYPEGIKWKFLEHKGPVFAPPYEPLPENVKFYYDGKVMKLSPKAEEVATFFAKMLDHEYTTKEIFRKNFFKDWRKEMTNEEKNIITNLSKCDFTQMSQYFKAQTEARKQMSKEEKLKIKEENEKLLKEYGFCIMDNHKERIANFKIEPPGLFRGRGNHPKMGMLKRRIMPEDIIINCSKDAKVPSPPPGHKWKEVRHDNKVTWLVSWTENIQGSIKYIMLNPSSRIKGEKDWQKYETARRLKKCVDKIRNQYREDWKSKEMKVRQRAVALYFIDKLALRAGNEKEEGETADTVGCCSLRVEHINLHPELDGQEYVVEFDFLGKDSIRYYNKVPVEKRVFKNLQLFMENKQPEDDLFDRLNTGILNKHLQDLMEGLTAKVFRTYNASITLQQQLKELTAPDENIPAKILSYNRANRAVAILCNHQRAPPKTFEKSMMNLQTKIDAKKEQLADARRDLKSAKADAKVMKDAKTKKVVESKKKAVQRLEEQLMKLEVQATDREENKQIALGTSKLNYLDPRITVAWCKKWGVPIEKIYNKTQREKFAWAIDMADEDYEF

MGC-803 [4] = experiment: Antiproliferative activity against human MGC-803 cells assessed as reduction in cell viability at 90 nM incubated for 24 hrs by BrdU staining based fluorescence microscopic analysis; format: functional
RKO [5] = experiment: Antiproliferative activity against human RKO cells assessed as reduction in cell viability at 90 nM incubated for 24 hrs by BrdU staining based fluorescence microscopic analysis; format: functional
MGC-803 [6] = experiment: Induction of apoptosis in human MGC-803 cells assessed as late apoptotic cells at 0.2 uM incubated for 24 hrs by propidium iodide and Annexin V/FITC staining based flow cytometry assay (reference value: 4.10%); format: functional
RKO [7] = experiment: Induction of cell cycle arrest in human RKO cells assessed as accumulation of cells at G2/M phase at 0.2 uM incubated for 24 hrs by propidium iodide staining based flow cytometry analysis; format: functional
MGC-803 [8] = experiment: Induction of apoptosis in human MGC-803 cells assessed as early apoptotic cells at 0.2 uM incubated for 24 hrs by propidium iodide and Annexin V/FITC staining based flow cytometry assay (reference value: 1.85%); format: functional
RKO [9] = experiment: Induction of apoptosis in human RKO cells assessed as early apoptotic cells at 0.2 uM incubated for 24 hrs by propidium iodide and Annexin V/FITC staining based flow cytometry assay (reference value: 0.16%); format: functional
RKO [10] = experiment: Induction of apoptosis in human RKO cells assessed as late apoptotic cells at 0.2 uM incubated for 24 hrs by propidium iodide and Annexin V/FITC staining based flow cytometry assay (reference value: 0.50%); format: functional
MGC-803 [11] = experiment: Induction of morphological changes in human MGC-803 cells at 0.2 uM incubated for 24 hrs by Giemsa staining based micrscopic analysis; format: functional, cell-based
RKO [12] = experiment: Induction of morphological changes in human RKO cells at 0.2 uM incubated for 24 hrs by Giemsa staining based micrscopic analysis; format: functional, cell-based

| SMILES | IC50 (SW480) [nM] | IC50 (LoVo) [nM] | IC50 (RKO [1]) [nM] | IC50 (HGC-27) [nM] | IC50 (SGC-7901) [nM] | IC50 (MGC-803 [2]) [nM] | IC50 (GES1) [nM] | inhibition [3] | Activity (MGC-803 [4]) | Activity (RKO [5]) | Activity (MGC-803 [6]) [%] | Activity (RKO [7]) [%] | Activity (MGC-803 [8]) [%] | Activity (RKO [9]) [%] | Activity (RKO [10]) [%] | Activity (MGC-803 [11]) | Activity (RKO [12]) |
| --- | --- | --- | --- | --- | --- | --- | --- | --- | --- | --- | --- | --- | --- | --- | --- | --- | --- |
| CCN1c2ccccc2C(=O)N2CCc3c([nH]c4ccccc34)C21 (stereo not drawn) | 980 | 1200 | 410 | 2150 | 430 | 170 | 300 | Active |  |  |  |  |  |  |  |  |  |
| C=CCN1c2ccccc2C(=O)N2CCc3c([nH]c4ccccc34)C21 (stereo not drawn) | 380 | 1000 | 380 | 1050 | 270 | 60 |  | Active |  |  |  |  |  |  |  |  |  |
| CCCCN1c2ccccc2C(=O)N2CCc3c([nH]c4ccccc34)C21 (stereo not drawn) | 1030 | 1990 | 450 | 1700 | 460 | 160 | 500 |  |  |  |  |  |  |  |  |  |  |
| C/C=C/C(=O)N1c2ccccc2C(=O)N2CCc3c([nH]c4ccccc34)C21 (stereo not drawn) | 6990 | > 30000 | 10200 | 4370 | 9590 | 10300 | 13600 |  |  |  |  |  |  |  |  |  |  |
| O=C1c2ccccc2N(CCBr)C2c3[nH]c4ccccc4c3CCN12 (stereo not drawn) | 970 | 1340 | 980 | 2050 | 1060 | 550 | 1340 |  |  |  |  |  |  |  |  |  |  |
| CC(C)N1c2ccccc2C(=O)N2CCc3c([nH]c4ccccc34)C21 (stereo not drawn) | 1170 | 540 | 490 | 2270 | 380 | 130 | 900 |  |  |  |  |  |  |  |  |  |  |
| O=C1c2ccccc2N(CC2CC2)C2c3[nH]c4ccccc4c3CCN12 (stereo not drawn) | 1840 | 440 | 420 | 1850 | 220 | 100 | 210 | Active |  |  |  |  |  |  |  |  |  |
| O=C1c2ccccc2N(CCC2OCCO2)C2c3[nH]c4ccccc4c3CCN12 (stereo not drawn) | > 30000 | > 30000 | > 30000 | > 30000 | 5630 | 15700 | > 30000 |  |  |  |  |  |  |  |  |  |  |
| C#CCN1c2ccccc2C(=O)N2CCc3c([nH]c4ccccc34)C21 (stereo not drawn) | 1220 | 1500 | 850 | 1520 | 640 | 210 | 1200 |  |  |  |  |  |  |  |  |  |  |
| O=C1c2ccccc2N(Cc2ccccc2)C2c3[nH]c4ccccc4c3CCN12 (stereo not drawn) | 13300 | > 30000 | 5960 | 10600 | 11600 | 9340 | 15900 |  |  |  |  |  |  |  |  |  |  |
| CCCCCN1c2ccccc2C(=O)N2CCc3c([nH]c4ccccc34)C21 (stereo not drawn) | 4410 | > 30000 | 1870 | 7740 | 1220 | 750 | 2820 |  |  |  |  |  |  |  |  |  |  |
| COC(=O)CN1c2ccccc2C(=O)N2CCc3c([nH]c4ccccc34)C21 (stereo not drawn) | > 30000 | > 30000 | 23400 | > 30000 | 6660 | > 30000 | > 30000 |  |  |  |  |  |  |  |  |  |  |
| C[Si](C)(C)CN1c2ccccc2C(=O)N2CCc3c([nH]c4ccccc34)C21 (stereo not drawn) | 3280 | 7060 | 2210 | > 3000 | 2470 | 1780 | 4240 |  |  |  |  |  |  |  |  |  |  |
| Cc1ccc(CN2c3ccccc3C(=O)N3CCc4c([nH]c5ccccc45)C32)cc1 (stereo not drawn) | > 30000 | > 30000 | 12500 | > 30000 | 6110 | 7060 | 9740 |  |  |  |  |  |  |  |  |  |  |
| CC(C)CN1c2ccccc2C(=O)N2CCc3c([nH]c4ccccc34)C21 (stereo not drawn) | 2200 | 500 | 880 | 1950 | 350 | 160 | 1080 | Active |  |  |  |  |  |  |  |  |  |
| CC(C)(C)CN1c2ccccc2C(=O)N2CCc3c([nH]c4ccccc34)C21 (stereo not drawn) | 1840 | 1950 | 1310 | > 3000 | 1210 | 910 | 1680 |  |  |  |  |  |  |  |  |  |  |
| COc1ccc(CCN2c3ccccc3C(=O)N3CCc4c([nH]c5ccccc45)C32)cc1OC (stereo not drawn) | > 30000 | > 30000 | > 30000 | > 30000 | > 30000 | > 30000 | > 30000 |  |  |  |  |  |  |  |  |  |  |
| COc1ccc(CN2c3ccccc3C(=O)N3CCc4c([nH]c5ccccc45)C32)cc1 (stereo not drawn) | > 30000 | 19700 | 5510 | 17800 | 5960 | 4490 | 8530 |  |  |  |  |  |  |  |  |  |  |
| COc1cc2c(c(OC)c1OC)-c1ccc(OC)c(=O)cc1[C@@H](NC(C)=O)CC2 [COLCHICINE] |  | 230 |  |  | 17300 | 7990 |  |  | Active | Active | 7.63 | 82.29 | 6.95 | 5.3 | 5.1 | Active | Active |
| C=C(CN1c2ccccc2C(=O)N2CCc3c([nH]c4ccccc34)C21)C(=O)OC (stereo not drawn) | > 30000 | > 30000 | > 30000 | > 30000 | > 30000 | 19700 | > 30000 |  |  |  |  |  |  |  |  |  |  |
